Measured values from patent US10131652B2, “Pyrimidinyloxy benzene derivatives as herbicides” (E. I. DU PONT DE NEMOURS AND COMPANY, priority 2014, dated 2018).
Where two headings read alike, the source gives them in different places.

Assays:
Assay in all cases: Test E pre-/postemergence plant response
Assay type in all cases: in vivo
[1] = tested on: bluegrass (annual bluegrass, Poa annua); settings: scale 0 to 100, read-out: Plant response rating, Bluegrass; for pest or weed control at 16 g/ha: 16 g ai/ha; for pest or weed control at 31 g/ha: 31 g ai/ha; for pest or weed control at 62 g/ha: 62 g ai/ha; for pest or weed control at 125 g/ha: 125 g ai/ha
In short: (§1)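 Visual scores on a 0–100 scale (100 = complete control) were assigned against untreated controls 7–21 days after treatment in a controlled environment. Compounds, formulated with solvent plus surfactant, were applied to pre-emergence silt-loam sowings or to 1- to 4-leaf plants (2–18 cm) in potting medium.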

[2] = tested on: Italian ryegrass (Lolium multiflorum); settings: scale 0 to 100, read-out: Plant response rating, Ryegrass, Italian; for pest or weed control at 16 g/ha: 16 g ai/ha; for pest or weed control at 31 g/ha: 31 g ai/ha; for pest or weed control at 62 g/ha: 62 g ai/ha; for pest or weed control at 125 g/ha: 125 g ai/ha
In short: as §1

[3] = tested on: pigweed (Amaranthus retroflexus); settings: scale 0 to 100, read-out: Plant response rating, Pigweed; for pest or weed control at 16 g/ha: 16 g ai/ha; for pest or weed control at 31 g/ha: 31 g ai/ha; for pest or weed control at 62 g/ha: 62 g ai/ha; for pest or weed control at 125 g/ha: 125 g ai/ha
In short: as §1

[4] = tested on: wild radish (Raphanus raphanistrum); settings: scale 0 to 100, read-out: Plant response rating, Radish, Wild; for pest or weed control at 16 g/ha: 16 g ai/ha; for pest or weed control at 31 g/ha: 31 g ai/ha; for pest or weed control at 62 g/ha: 62 g ai/ha; for pest or weed control at 125 g/ha: 125 g ai/ha
In short: as §1

kochia (Kochia scoparia) = settings: Bassia scoparia, scale 0 to 100, read-out: Plant response rating, Kochia; for pest or weed control at 16 g/ha: 16 g ai/ha; for pest or weed control at 31 g/ha: 31 g ai/ha; for pest or weed control at 62 g/ha: 62 g ai/ha; for pest or weed control at 125 g/ha: 125 g ai/ha
In short: as §1

[5] = tested on: wild mustard (Sinapis arvensis); settings: Brassica, scale 0 to 100, read-out: Plant response rating, Mustard, Wild; for pest or weed control at 16 g/ha: 16 g ai/ha; for pest or weed control at 31 g/ha: 31 g ai/ha; for pest or weed control at 62 g/ha: 62 g ai/ha; for pest or weed control at 125 g/ha: 125 g ai/ha
In short: as §1

[6] = tested on: speedwell (bird's-eye speedwell, Veronica persica); settings: scale 0 to 100, read-out: Plant response rating, Speedwell; for pest or weed control at 16 g/ha: 16 g ai/ha; for pest or weed control at 62 g/ha: 62 g ai/ha; for pest or weed control at 125 g/ha: 125 g ai/ha
In short: as §1

[7] = tested on: lambsquarters (Chenopodium album); settings: scale 0 to 100, read-out: Plant response rating, Lambsquarters; for pest or weed control at 16 g/ha: 16 g ai/ha; for pest or weed control at 31 g/ha: 31 g ai/ha; for pest or weed control at 62 g/ha: 62 g ai/ha; for pest or weed control at 125 g/ha: 125 g ai/ha
In short: as §1

[8] = tested on: blackgrass (Alopecurus myosuroides); settings: scale 0 to 100, read-out: Plant response rating, Blackgrass; for pest or weed control at 16 g/ha: 16 g ai/ha; for pest or weed control at 31 g/ha: 31 g ai/ha; for pest or weed control at 62 g/ha: 62 g ai/ha; for pest or weed control at 125 g/ha: 125 g ai/ha
In short: as §1

[9] = tested on: winter wheat (Triticum aestivum); settings: scale 0 to 100, read-out: Plant response rating, Wheat, Winter; for plant injury at 16 g/ha: 16 g ai/ha; for plant injury at 62 g/ha: 62 g ai/ha; for plant injury at 125 g/ha: 125 g ai/ha
In short: as §1

[10] = tested on: spring barley (Hordeum vulgare); settings: for plant injury at 16 g/ha: 16 g ai/ha; for plant injury at 31 g/ha: 31 g ai/ha; for plant injury at 62 g/ha: 62 g ai/ha; for plant injury at 125 g/ha: 125 g ai/ha
In short: as §1

[11] = post-emergence, 31 g ai/ha, Postemergence
[12] = post-emergence, Postemergence, scale 0 to 100, read-out: Plant response rating, Barley, Spring
[13] = pre-emergence, Preemergence, scale 0 to 100, read-out: Plant response rating, Barley, Spring

Fc1cccc(Oc2ncc(Br)cn2)c1-c1cc(C(F)F)no1 [Compound 145, 5-bromo-2-[2-[3-(difluoromethyl)-5-isoxazolyl]-3-fluorophenoxy]pyrimidine]
pest or weed control at 16 g/ha ([1]; post-emergence, Postemergence): 15%
pest or weed control at 31 g/ha ([1]; post-emergence, Postemergence): 60%
pest or weed control at 62 g/ha ([1]; post-emergence, Postemergence): 65%
pest or weed control at 125 g/ha ([1]; post-emergence, Postemergence): 70%
pest or weed control at 16 g/ha ([1]; pre-emergence, Preemergence): 0%
pest or weed control at 31 g/ha ([1]; pre-emergence, Preemergence): 0%
pest or weed control at 62 g/ha ([1]; pre-emergence, Preemergence): 10%
pest or weed control at 125 g/ha ([1]; pre-emergence, Preemergence): 90%
pest or weed control at 16 g/ha ([2]; post-emergence, Postemergence): 5%
pest or weed control at 31 g/ha ([2]; post-emergence, Postemergence): 10%
pest or weed control at 62 g/ha ([2]; post-emergence, Postemergence): 25%
pest or weed control at 125 g/ha ([2]; post-emergence, Postemergence): 40%
pest or weed control at 16 g/ha ([2]; pre-emergence, Preemergence): 10%
pest or weed control at 31 g/ha ([2]; pre-emergence, Preemergence): 20%
pest or weed control at 62 g/ha ([2]; pre-emergence, Preemergence): 50%
pest or weed control at 125 g/ha ([2]; pre-emergence, Preemergence): 70%
pest or weed control at 16 g/ha ([3]; post-emergence, Postemergence): 100%
pest or weed control at 31 g/ha ([3]; post-emergence, Postemergence): 100%
pest or weed control at 62 g/ha ([3]; post-emergence, Postemergence): 100%
pest or weed control at 125 g/ha ([3]; post-emergence, Postemergence): 100%
pest or weed control at 16 g/ha ([3]; pre-emergence, Preemergence): 100%
pest or weed control at 31 g/ha ([3]; pre-emergence, Preemergence): 100%
pest or weed control at 62 g/ha ([3]; pre-emergence, Preemergence): 100%
pest or weed control at 125 g/ha ([3]; pre-emergence, Preemergence): 100%
pest or weed control at 16 g/ha ([4]; post-emergence, Postemergence): 95%
pest or weed control at 31 g/ha ([4]; post-emergence, Postemergence): 100%
pest or weed control at 62 g/ha ([4]; post-emergence, Postemergence): 100%
pest or weed control at 125 g/ha ([4]; post-emergence, Postemergence): 100%
pest or weed control at 16 g/ha ([4]; pre-emergence, Preemergence): 15%
pest or weed control at 31 g/ha ([4]; pre-emergence, Preemergence): 15%
pest or weed control at 62 g/ha ([4]; pre-emergence, Preemergence): 85%
pest or weed control at 125 g/ha ([4]; pre-emergence, Preemergence): 100%
pest or weed control at 16 g/ha (kochia (Kochia scoparia); post-emergence, Postemergence): 98%
pest or weed control at 31 g/ha (kochia (Kochia scoparia); post-emergence, Postemergence): 100%
pest or weed control at 62 g/ha (kochia (Kochia scoparia); post-emergence, Postemergence): 100%
pest or weed control at 125 g/ha (kochia (Kochia scoparia); post-emergence, Postemergence): 100%
pest or weed control at 16 g/ha (kochia (Kochia scoparia); pre-emergence, Preemergence): 60%
pest or weed control at 31 g/ha (kochia (Kochia scoparia); pre-emergence, Preemergence): 100%
pest or weed control at 62 g/ha (kochia (Kochia scoparia); pre-emergence, Preemergence): 100%
pest or weed control at 125 g/ha (kochia (Kochia scoparia); pre-emergence, Preemergence): 100%
pest or weed control at 16 g/ha ([5]; post-emergence, Postemergence): 100%
pest or weed control at 31 g/ha ([5]; post-emergence, Postemergence): 100%
pest or weed control at 62 g/ha ([5]; post-emergence, Postemergence): 100%
pest or weed control at 125 g/ha ([5]; post-emergence, Postemergence): 100%
pest or weed control at 16 g/ha ([5]; pre-emergence, Preemergence): 95%
pest or weed control at 31 g/ha ([5]; pre-emergence, Preemergence): 100%
pest or weed control at 62 g/ha ([5]; pre-emergence, Preemergence): 100%
pest or weed control at 125 g/ha ([5]; pre-emergence, Preemergence): 100%
pest or weed control at 16 g/ha ([6]; post-emergence, Postemergence): 100%
pest or weed control at 31 g/ha [6, 11]: 100%
pest or weed control at 62 g/ha ([6]; post-emergence, Postemergence): 100%
pest or weed control at 125 g/ha ([6]; post-emergence, Postemergence): 100%
pest or weed control at 16 g/ha ([6]; pre-emergence, Preemergence): 95%
pest or weed control at 62 g/ha ([6]; pre-emergence, Preemergence): 100%
pest or weed control at 125 g/ha ([6]; pre-emergence, Preemergence): 100%
pest or weed control at 16 g/ha ([7]; post-emergence, Postemergence): 90%
pest or weed control at 31 g/ha ([7]; post-emergence, Postemergence): 90%
pest or weed control at 62 g/ha ([7]; post-emergence, Postemergence): 95%
pest or weed control at 125 g/ha ([7]; post-emergence, Postemergence): 95%
pest or weed control at 16 g/ha ([7]; pre-emergence, Preemergence): 100%
pest or weed control at 31 g/ha ([7]; pre-emergence, Preemergence): 100%
pest or weed control at 62 g/ha ([7]; pre-emergence, Preemergence): 100%
pest or weed control at 125 g/ha ([7]; pre-emergence, Preemergence): 100%
pest or weed control at 16 g/ha ([8]; post-emergence, Postemergence): 25%
pest or weed control at 31 g/ha ([8]; post-emergence, Postemergence): 35%
pest or weed control at 62 g/ha ([8]; post-emergence, Postemergence): 65%
pest or weed control at 125 g/ha ([8]; post-emergence, Postemergence): 80%
pest or weed control at 16 g/ha ([8]; pre-emergence, Preemergence): 10%
pest or weed control at 31 g/ha ([8]; pre-emergence, Preemergence): 50%
pest or weed control at 62 g/ha ([8]; pre-emergence, Preemergence): 60%
pest or weed control at 125 g/ha ([8]; pre-emergence, Preemergence): 75%
plant injury at 16 g/ha ([9]; post-emergence, Postemergence): 15%
plant injury at 31 g/ha [9, 11]: 20%
plant injury at 62 g/ha ([9]; post-emergence, Postemergence): 35%
plant injury at 125 g/ha ([9]; post-emergence, Postemergence): 55%
plant injury at 16 g/ha ([9]; pre-emergence, Preemergence): 0%
plant injury at 62 g/ha ([9]; pre-emergence, Preemergence): 25%
plant injury at 125 g/ha ([9]; pre-emergence, Preemergence): 75%
plant injury at 16 g/ha [10, 12]: 15%
plant injury at 31 g/ha [10, 12]: 15%
plant injury at 62 g/ha [10, 12]: 20%
plant injury at 125 g/ha ([10]; post-emergence, Postemergence, scale 0 to 100 (0 no effect, 100 complete control), read-out: Plant response rating, Barley, Spring): 30%
plant injury at 16 g/ha [10, 13]: 15%
plant injury at 31 g/ha [10, 13]: 25%
plant injury at 62 g/ha [10, 13]: 45%
plant injury at 125 g/ha [10, 13]: 80%
